{
  "source": "patent US11883526B2",
  "about": "(priority 2019, dated 2024)",
  "key": {"[1]": {"system": "subjects with MDD at imminent risk for suicide", "assay": "Beck Hopelessness Scale, BHS ([…]2001)", "format": "in vivo, human", "settings": "84 mg, ANCOVA LOCF, ITT", "excerpt": "The BHS is a self-reported measure to assess one's level of negative expectations or pessimism regarding the future. It consists of 20 true-false items that examine the respondent's attitude over the past week by either endorsing a pessimistic statement or denying an optimistic statement. For every statement, each response is assigned a score of 0 or 1. The total BHS score is a sum of item responses and ranges from 0 to 20, with a higher score representing a higher level of hopelessness."}, "[2]": {"settings": "single dose study, 72 mg intranasal", "experimental": "This study includes a single dose and 14-day repeated dose neurotoxicity studies with intranasally administered esketamine in female rats 12 to 14 weeks of age. These studies were conducted to investigate whether single or repeated intranasal administrations of esketamine induced neurodegenerative changes in the rat brain. The study results were used to estimate an esketamine exposure-based safety margin compared with the maximum dose of esketamine administered intranasally to depressed adult patients in clinical trials.\nThe vehicle- and the 36 and 54 mg-dosed groups consisted of 24 animals per group, while the 72 mg-dosed and positive control groups involved 30 animals per group. Four satellite animals were added to the esketamine HCl-dosed groups of main study animals for toxicokinetic (TK) purposes. In these animals the plasma exposure to esketamine was measured on the day of dosing at various time points up to and including 24 hours after the first instillation."}, "[3]": {"system": "patients with treatment-resistant depression (TRD)", "assay": "CGI-S (Example 7)", "format": "in vivo, human", "experimental": "Overall illness severity was assessed on the Clinical Global Impression of Severity (CGI-S) scale (Guy, “ECDEU Assessment Manual for Psychopharmacology—Revised (DHEW Publ No ADM 76-338)”, Rockville, Md.: U.S. Department of Health, Education, and Welfare, Public Health Service, Alcohol, Drug Abuse, and Mental Health Administration, NIMH Psychopharmacology Research Branch, Division of Extramural Research Programs; 1976, pp 218-222). Participants assessed their severity of anxiety on the Generalized Anxiety Disorder 7-item (GADS-7) Scale (See, Tables 157 and 158). See, Spitzer, “A brief measure for assessing generalized anxiety disorder—the GAD-7”, Arch. Intern. Med., 2006, 166(10):1092-1097."}, "[4]": {"system": "patients with treatment-resistant depression (TRD)", "assay": "Vital signs: blood pressure and heart rate (Example 7)", "format": "in vivo, human", "experimental": "(§1) Adverse events were monitored throughout the study. Other safety assessments (i.e., laboratory tests, vital signs, physical examination) were performed at pre-specified time points. Vital signs, the Clinician Administered Dissociative States Scale (CADSS; Bremner, “Measurement of dissociative states with the clinician-administered dissociative states scale (CADSS)”, J. Traumatic Stress, 1998, 11(1):125-136), and the 4-item positive symptom subscale from the Brief Psychiatric Rating Scale (BPRS; Overall, “The Brief Psychiatric Rating Scale. Psychological Reports”, 1962, 10:799-812) were assessed pre-dose, at 40 minutes, and 2 hours post-dose."}, "[5]": {"system": "patients with treatment-resistant depression (TRD)", "assay": "BPRS positive symptom subscale (Example 7)", "design": "species or system human", "settings": "in vivo", "experimental": "as §1"}, "[6]": {"assay": "Pharmacokinetics of intranasal esketamine in healthy subjects (Example 9)", "settings": "across the 3 treatment groups", "experimental": "This was an open-label, single-center study. The subjects were healthy Caucasian men and women, 20 to 55 years of age, inclusive. […] The solution consisted of:\nBlood samples (4 mL each) for determination of esketamine and noresketamine plasma concentrations were collected into the appropriate collection tube (e.g., Vacutainer®) at timepoints 0.00, 0.12, 0.20, 0.37, 0.53, 0.67, 0.83, 1.00, 1.25, 1.50, 2.00, 3.00, 4.00, 6.00, 9.00, 12.00, 18.00, and 24.00 h. The total amount of blood to be drawn for clinical laboratory tests and PK evaluations is approximately 327 mL.\nPlasma samples were analyzed for esketamine and noresketamine concentrations using the validated, specific and sensitive liquid chromatography coupled to tandem mass spectrometry (LC-MS/MS) achiral method of Example 8.\nSerial PK blood samples (4 mL each) were collected for a 24-hour period from each subject (Periods 1, 2, and 3). […] Statistical Methods 1.6.4.1. Sample Size\nThe following key parameters of esketamine and noresketamine in plasma were calculated using noncompartmental methods and actual sampling times: Cmax, tmax, AUClast, AUC∞, t1/2,λ, and λz."}, "adult subjects with TRD": {"system": "adult subjects with TRD", "settings": "US patients", "source_text": "Adverse events were reported by the subject (or, when appropriate, by a caregiver, surrogate, or the subject's legally acceptable representative) for the duration of the study. Adverse events were followed by the investigator. TEAEs of special interest were examined separately.\nThe verbatim terms used in the eCRF by investigators to identify adverse events were coded using the MedDRA. All reported adverse events with onset during the double-blind induction phase (i.e., TEAEs, and adverse events that have worsened since baseline) were included in the analysis. For each adverse event, the percentage of subjects who experience at least 1 occurrence of the given event was summarized by treatment group. Adverse events occurring during the follow-up phase were summarized separately.\nTEAEs of special interest were examined separately. AEs of special interest were listed in the SAP. Subjects who died, who discontinued treatment due to an adverse event, or who experienced a severe or a serious adverse event were summarized separately.\nAn adverse event is any untoward medical occurrence in a clinical study subject administered a medicinal (investigational or non-investigational) product. […]"}},
  "data": [
    {"smiles": "CN[C@]1(c2ccccc2Cl)CCCCC1=O", "note": "[esketamine, (S)-2-(2-chlorophenyl)-2-(methylamino)cyclohexanone]", "values": [
      {"measurement": "BHS total score change from baseline, Diff. of LS Means (minus Placebo)", "setting": "[1]; Day 1(DB): 4 H", "value": "−1.5"},
      {"measurement": "BHS total score change from baseline, Diff. of LS Means (minus Placebo)", "setting": "[1]; End Point(DB)", "value": "−2.3"},
      {"measurement": "AUC-based safety margin compared with the maximum 84 mg clinical dose", "setting": "[2]", "value": "~86", "unit": "fold"},
      {"measurement": "Cmax-based safety margin compared with the maximum 84 mg clinical dose", "setting": "[2]", "value": "approximately 60 fold"},
      {"measurement": "CGI-S change from baseline, Median Change (Range)", "setting": "[3]; Period 1 (first day to day 8), 28 mg", "value": "−1.0 (−2, 1)"},
      {"measurement": "CGI-S change from baseline, Median Change (Range)", "setting": "[3]; Period 1 (first day to day 8), 56 mg", "value": "−1.0 (−3, 0)"},
      {"measurement": "CGI-S change from baseline, Median Change (Range)", "setting": "[3]; Period 1 (first day to day 8), 84 mg", "value": "−0.5 (−4, 0)"},
      {"measurement": "CGI-S at end point, Median (Range)", "setting": "[3]; Period 1, 28 mg", "value": "4.0 (3, 5)"},
      {"measurement": "CGI-S at end point, Median (Range)", "setting": "[3]; Period 1, 56 mg", "value": "4.0 (1, 5)"},
      {"measurement": "CGI-S at end point, Median (Range)", "setting": "[3]; Period 1, 84 mg", "value": "4.0 (1, 6)"},
      {"measurement": "CGI-S change from baseline, Median Change (Range)", "setting": "[3]; Period 2 (first day to day 8 of period), 28 mg", "value": "−1.0 (−1, 0)"},
      {"measurement": "CGI-S change from baseline, Median Change (Range)", "setting": "[3]; Period 2 (first day to day 8 of period), 56 mg", "value": "−1.0 (−2, 0)"},
      {"measurement": "CGI-S change from baseline, Median Change (Range)", "setting": "[3]; Period 2 (first day to day 8 of period), 84 mg", "value": "−1.0 (−2, 0)"},
      {"measurement": "CGI-S at end point, Median (Range)", "setting": "[3]; Period 2, 28 mg", "value": "4.0 (3, 5)"},
      {"measurement": "CGI-S at end point, Median (Range)", "setting": "[3]; Period 2, 56 mg", "value": "5.0 (4, 6)"},
      {"measurement": "CGI-S at end point, Median (Range)", "setting": "[3]; Period 2, 84 mg", "value": "4.0 (3, 5)"},
      {"measurement": "maximum diastolic blood pressure value", "setting": "[4]; 10 or 40 minutes post-dose", "value": 115, "unit": "mmHg"},
      {"measurement": "maximum systolic blood pressure value", "setting": "[4]; 10 or 40 minutes post-dose", "value": 199, "unit": "mmHg"},
      {"measurement": "maximum mean change in diastolic blood pressure", "setting": "[4]; dosing days", "value": 10.3, "unit": "mmHg"},
      {"measurement": "maximum mean change in heart rate", "setting": "[4]; dosing days", "value": 9.4, "unit": "bpm"},
      {"measurement": "maximum mean change in systolic blood pressure", "setting": "[4]; dosing days", "value": 19.0, "unit": "mmHg"},
      {"measurement": "elevated blood pressure returned to the normal range by", "setting": "[4]; in vivo", "value": "≤ 2", "unit": "hours post-dose"},
      {"measurement": "symptoms suggestive of psychosis (BPRS-positive assessment)", "setting": "[5]", "value": "No participant manifested symptoms suggestive of psychosis"},
      {"measurement": "variability of AUC (AUClast and AUC∞)", "setting": "[6]", "value": "25.0% to 30.4"},
      {"measurement": "variability of Cmax (percent coefficient of variation)", "setting": "[6]", "value": "35.7% to 36.7"},
      {"measurement": "patients who withdrew from nasal spray drug", "setting": "adult subjects with TRD", "value": 3, "unit": "n"}
    ]}
  ]
}
